The record followed here is patent publication US20030013656A1, “Pyruvate derivatives” (priority 2001, published 2003).

Structures are written as SMILES.

The test concerns rat middle cerebral artery occlusion (MCAO) model. The experiment in a line: Rat middle cerebral artery occlusion (MCAO) model of cerebral ischemia. Type of test: in vivo. Conditions: 2 h, doses in the range of less than about 1 μg/kg to less than about 10 mg/kg, two hours MCAO, read-out: reduction in total infarct volume. How it is done:
Male Wistar rats (Harlan, Ind.) weighing 300-350 g are commonly used in these experiments. Animals are allowed free access to water and commercial rodent diet under standard laboratory conditions. Room temperature is maintained at 20-23° C. and room illumination is on a 12/12-hour light/dark cycle. Animals are acclimatized to the laboratory environment 5 to 7 days prior to the study, and fasted (with free access to water) overnight before surgery.
Anesthesia is maintained by inhalation of 3.0% isoflurane (Aerrane, Front Dodge, Iowa) in […]. The animal's neck is shaved and sterilized before operation. Body temperatures are controlled and maintained at 37.5° C.+/−1 degree via external heating and cooling devices. To lower the body temperature, animals are placed in a cooling chamber that uses ice to cool circulating air. Throughout the study the body temperature is recorded using a temperature transponder (BMDS Inc., Seaford, Del.) implanted subcutaneously at the time of MCAO between the rat shoulder blades, which allows the user to read the body temperature via a pocket scanner (BMDS Inc., Seaford, Del.). The body temperature can also be taken by inserting the temperature probe into the animal's rectum. Body temperature is recorded every hour for 6 hours post-occlusion, but temperature is measured more frequently to facilitate maintaining the animals' normothermic temperature.
Animals are subjected to two hours MCAO using a modified intraluminal filament technique, as follows. A midline incision on the ventral part of the neck is made to expose external and internal carotid arteries. The right external and common carotid arteries are ligated by a suture (silk 5/0, Carlisle Laboratories, Farmers Branch, Tex.) and the right internal artery is temporarily ligated using a microvascular clip (Fine Science Tool Inc., Foster City, Calif.). A small incision is made in the common carotid artery. A nylon filament, its tip rounded by heating, is prepared from a fishing line (Stren Fishing Lines, Wilmington, Del.) and is inserted from the right common carotid artery. The filament is advanced into the internal carotid artery 18-20 mm from the point of bifurcation of internal and external arteries and a suture is tightly ligated around the filament. Two hours post occlusion, animals are re-anesthetized to allow reperfusion for the remaining of the experiment by removal of the filament. C. Drug Administration
Test compounds can be administered by any of a number of routes, such as those described below. Compounds can be administered before, during or after occlusion, as appropriate to the protocol.
One hour after MCAO, the animal is gently held by its tail and observed for forelimb flexion. Then the animal is placed on the floor to be observed for walking pattern; only the animals that score 3 on the Bederson grading system (Table 1) are included in the study.
Twenty-four hours post-MCAO, or longer in some experiments, animals are sacrificed by CO2 asphyxiation (dry ice). The brain is quickly removed from the skull, using standard procedures, rinsed in chilled saline solution, and placed on a rat brain tissue slicer (ASI instrument, MI). Seven 2-mm thick coronal slices are cut from each brain using razor blades. The slices are immersed in 0.9% saline containing 1.0% 2,3,5-triphenyltetrazolume chloride (TTC) (Sigma Chemical Co., St. Louis, Mo.) and incubated in a 37° C. water bath for 30 minutes.
After staining, each 2-mm slice is photographed with a TMC-7 camera (JH Technologies, Ca) which is directly connected to a desktop PC to capture and save the image of each brain slice. This image is used for the measurements of the regions of interest using a computer-based image processing system (Metamorph).
To measure each area, the region of interest is selected using a freehand selection tool, the area is automatically computed by selecting the measure command. […]
Take `CCOC(=O)C(N)CCC(=O)NC(CSCC(=O)C(=O)O)C(=O)NCC(=O)O` (centres unmarked) [2-amino-4-[1-(carboxymethyl-carbamoyl)-2-(2-carboxy-2-oxo-ethylsulfanyl)-ethylcarbamoyl]-butyric acid ethyl ester]: the inhibition in vivo at up to 10 mg/kg is 20 to 80%.

In the case of `CCOC(=O)/C(CSCC(NC(=O)CCC(N)C(=O)O)C(=O)NCC(=O)O)=N\OC` (centres unmarked) [2-Amino-4-[1-(carboxymethyl-carbamoyl)-2-(2-ethoxycarbonyl-2-methoxyimino-ethylsulfanyl)-ethylcarbamoyl]-butyric acid], the inhibition in vivo at up to 10 mg/kg was 20 to 80%.

Consider `NC(CCC(=O)NC(CSCC(=NO)C(=O)N1CCCCC1)C(=O)NCC(=O)O)C(=O)O` (centres unmarked) [2-Amino-4-[1-(carboxymethyl-carbamoyl)-2-(2-hydroxyimino-3-oxo-3-piperidin-1-yl-propylsulfanyl)-ethylcarbamoyl]-butyric acid], for which the inhibition in vivo at up to 10 mg/kg lay within 20 to 80%.

For `CCOC(=O)C(=O)CSc1nc2ccccc2[nH]1` [3-(1H-Benzoimidazol-2-ylsulfanyl)-2-oxo-propionic acid ethyl ester], the inhibition in vivo at up to 10 mg/kg fell in the range of 20 to 80%.

As for `COC(=O)C(Cc1ccccc1)NC(=O)C(=O)CSCC(NC(=O)CCC(N)C(=O)O)C(=O)NCC(=O)O` (centres unmarked) [2-Amino-4-{1-(carboxymethyl-carbamoyl)-2-[2-(1-methoxycarbonyl-2-phenyl-ethylcarbamoyl)-2-oxo-ethylsulfanyl]-ethylcarbamoyl}-butyric acid], the inhibition in vivo at up to 10 mg/kg fell in the range of 20 to 80%.

For `CCOC(=O)C(=O)CSC1=NCCS1` [3-(4,5-dihydro-thiazol-2-ylsulfanyl)-2-oxo-propionic acid ethyl ester], the inhibition in vivo at up to 10 mg/kg fell in the range of 20 to 80%.

In the case of `CCCCOC(=O)C(CSCC(NC(=O)CCC(N)C(=O)O)C(=O)NCC(=O)O)=NOCc1ccccc1` (centres unmarked) [2-Amino-4-[2-(2-benzyloxyimino-2-butoxycarbonyl-ethylsulfanyl)-1-(carboxymethyl-carbamoyl)-ethylcarbamoyl]-butyric acid], the inhibition in vivo at up to 10 mg/kg lay in the range of 20 to 80%.

For `CCOC(=O)C(CSCC(NC(=O)CCC(N)C(=O)O)C(=O)NCC(=O)O)=NO` (centres unmarked) [2-amino-4-[1-(carboxymethyl-carbamoyl)-2-(2-ethoxycarbonyl-2-hydroxyimino-ethylsulfanyl)-ethylcarbamoyl]-butyric acid], the inhibition in vivo at up to 10 mg/kg lay in the range of 20 to 80%.

For the molecule `CCCCOC(=O)C(CSCC(NC(=O)CCC(N)C(=O)O)C(=O)NCC(=O)O)=NOC` (centres unmarked) [2-Amino-4-[2-(2-butoxycarbonyl-2-methoxyimino-ethylsulfanyl)-1-(carboxymethyl-carbamoyl)-ethylcarbamoyl]-butyric acid], the inhibition in vivo at up to 10 mg/kg fell in the range of 20 to 80%.

Take `CCOC(=O)C(=O)CSc1nc2cc([N+](=O)[O-])ccc2[nH]1` [3-(5-nitro-1H-benzoimidazol-2-ylsulfanyl)-2-oxo-propionic acid ethyl ester]: the inhibition in vivo at up to 10 mg/kg fell in the range of 20 to 80%.

`CCCCCCOC(=O)C(=O)CSCC(NC(=O)CCC(N)C(=O)O)C(=O)NCC(=O)O` (centres unmarked) [2-amino-4-[1-(carboxymethyl-carbamoyl)-2-(2-hexyloxycarbonyl-2-oxo-ethylsulfanyl)-ethylcarbamoyl]-butyric acid]: the inhibition in vivo at up to 10 mg/kg was 20 to 80%.

Turning to `NC(CCC(=O)NC(CSCC(=O)C(=O)N1CCCCC1)C(=O)NCC(=O)O)C(=O)O` (centres unmarked) [2-Amino-4-[1-(carboxymethyl-carbamoyl)-2-(2,3-dioxo-3-piperidin-1-yl-propylsulfanyl)-ethylcarbamoyl]-butyric acid], the inhibition in vivo at up to 10 mg/kg fell in the range of 20 to 80%.

For the molecule `CCOC(=O)C(=O)CSc1nc2cc(OC)ccc2[nH]1` [3-(5-methoxy-1H-benzoimidazol-2-ylsulfanyl)-2-oxo-propionic acid ethyl ester], the inhibition in vivo at up to 10 mg/kg was in the range of 20 to 80%.

For the molecule `NC(CCC(=O)NC(CSCC(=O)C(=O)O)C(=O)NCC(=O)O)C(=O)O` (centres unmarked) [2-amino-4-[1-(carboxymethyl-carbamoyl)-2-(2-carboxy-2-oxo-ethylsulfanyl)-ethylcarbamoyl]-butyric acid], the inhibition in vivo at up to 10 mg/kg was in the range of 20 to 80%.
